Data published in article PMC6738096 (British Journal of Cancer, 2019).
Entries after “also recorded” stand apart in the source; their conditions may differ.

Assay: Phase 1 dose-escalation trial: safety and tolerability (TEAEs, SAEs, DLT, MTD, RP2D)
Conditions: for Patients with any AE leading to death: none deemed related to treatment
[1] = safety population, regardless of causality

Protocol: Endpoints included the incidence of DLTs (defined in the ‘Safety' section) in the first 28-day treatment cycle (cycle 1), the frequency and severity of adverse events (AEs) and serious AEs (SAEs) and changes in laboratory values, vital signs, physical examination findings and Eastern Cooperative Oncology Group (ECOG) performance status (PS).
The starting dose was 30 mg, which was determined by review of nonclinical toxicokinetic assessments. A treatment cycle comprised 28 days in the absence of disease progression or unacceptable toxicity. Patients received starting doses ranging from 30 mg once every 24 hours (Q24h) to 480 mg Q24h, and escalation proceeded based on a 3 + 3 design.
The subsequent cohort started at a reduced dosing regimen. Additional dosing schedules were once every 12 hours (Q12h) at 30 and 60 mg and once every 8 hours (Q8h) at 20 and 40 mg.
Toxicities were graded and recorded according to NCI CTCAE version 4.03. Patients were assessed for DLTs during the first 28-day cycle. A DLT was defined as any grade ≥ 3 nonhaematologic toxicity, according to NCI CTCAE version 4.03.

CC(C)NC(=O)[C@H]1CC[C@@H](n2c(NC(=O)c3ccc(F)cc3)nc3ccc(CN4CCC(C(C)(C)O)CC4)cc32)CC1 [TSR-011]
SAE: Bone pain (40 mg Q8h (n = 31)): 0 n (%) | SAE: Deep-vein thrombosis (40 mg Q8h (n = 31)): 0 n (%) | SAE: Dehydration (40 mg Q8h (n = 31)): 0 n (%) | SAE: Disease progression (40 mg Q8h (n = 31)): 2 (6.5) n (%) | SAE: Dyspnoea (40 mg Q8h (n = 31)): 0 n (%) | SAE: Gastric haemorrhage (40 mg Q8h (n = 31)): 0 n (%) | SAE: Gastric ulcer helicobacter (40 mg Q8h (n = 31)): 1 (3.2) n (%) | SAE: Infection (40 mg Q8h (n = 31)): 1 (3.2) n (%) | SAE: Lower respiratory tract infection (40 mg Q8h (n = 31)): 1 (3.2) n (%) | SAE: Mastoiditis (40 mg Q8h (n = 31)): 0 n (%) | SAE: Mental impairment (40 mg Q8h (n = 31)): 0 n (%) | SAE: Metastases to the central nervous system (40 mg Q8h (n = 31)): 1 (3.2) n (%) | SAE: Pericardial effusion (40 mg Q8h (n = 31)): 1 (3.2) n (%) | SAE: Pleural effusion (40 mg Q8h (n = 31)): 1 (3.2) n (%) | SAE: Pneumonia (40 mg Q8h (n = 31)): 1 (3.2) n (%) | SAE: Portal vein thrombosis (40 mg Q8h (n = 31)): 0 n (%) | SAE: Seizure (40 mg Q8h (n = 31)): 1 (3.2) n (%) | SAE: Subarachnoid haemorrhage (40 mg Q8h (n = 31)): 1 (3.2) n (%) | Total number of TEAEs (40 mg Q8h (n = 31)): 167 | Total number of treatment-emergent SAEs (40 mg Q8h (n = 31)): 16 | Patients with any AE leading to death (40 mg Q8h (n = 31)): 2 (6.5) Number (%) | Grade ≥ 3 pneumonitis or hypoxia (40 mg TID): no grade ≥ 3 pneumonitis or hypoxia was observed | Grade 3 ECG QTc prolongation within the DLT period (320 mg Q24h cohort, an additional patient determined retrospectively): One patient | DLTs (30-, 60-, 120- and 240-mg IR Q24h cohorts): none of the patients experienced DLTs | Maximum tolerated dose (MTD) (320- and 480-mg Q24h doses): exceeded the maximum tolerated dose; also recorded: exceeded the MTD | Grade 3 QTc prolongation (480-mg Q24h cohort): two of four patients | Drug-related TEAE: Abnormal dreams (All patients (N = 72)): 2 (2.8) n (%) | Drug-related TEAE: Anaemia (All patients (N = 72)): 2 (2.8) n (%) | Drug-related TEAE: Asthenia (All patients (N = 72)): 2 (2.8) n (%) | Drug-related TEAE: Constipation (All patients (N = 72)): 5 (6.9) n (%) | Drug-related TEAE: Decreased appetite (All patients (N = 72)): 4 (5.6) n (%) | Drug-related TEAE: Diarrhoea (All patients (N = 72)): 3 (4.2) n (%) | Drug-related TEAE: Dysaesthesia (All patients (N = 72)): 2 (2.8) n (%) | Drug-related TEAE: Dysgeusia (All patients (N = 72)): 3 (4.2) n (%) | Drug-related TEAE: Electrocardiogram QTc prolonged (All patients (N = 72)): 12 (16.7) n (%) | Drug-related TEAE: Fatigue (All patients (N = 72)): 4 (5.6) n (%) | Drug-related TEAE: Headache (All patients (N = 72)): 3 (4.2) n (%) | Drug-related TEAE: Hot flush (All patients (N = 72)): 2 (2.8) n (%) | Drug-related TEAE: Increased transaminases (All patients (N = 72)): 2 (2.8) n (%) | Drug-related TEAE: Insomnia (All patients (N = 72)): 2 (2.8) n (%) | Drug-related TEAE: Myalgia (All patients (N = 72)): 2 (2.8) n (%) | Drug-related TEAE: Nausea (All patients (N = 72)): 3 (4.2) n (%) | Drug-related TEAE: Peripheral oedema (All patients (N = 72)): 3 (4.2) n (%) | Drug-related TEAE: Rash (All patients (N = 72)): 2 (2.8) n (%) | Drug-related TEAE: Vomiting (All patients (N = 72)): 4 (5.6) n (%) | Grade 3 TEAE: Anaemia (All patients (N = 72)): 5 (6.9) n (%) | Grade 3 TEAE: Ascites (All patients (N = 72)): 2 (2.8) n (%) | Grade 3 TEAE: Asthenia (All patients (N = 72)): 3 (4.2) n (%) | Grade 3 TEAE: Dyspnoea (All patients (N = 72)): 3 (4.2) n (%) | Grade 3 TEAE: Electrocardiogram QTc prolonged (All patients (N = 72)): 4 (5.6) n (%) | Grade 3 TEAE: Fatigue (All patients (N = 72)): 2 (2.8) n (%) | Grade 3 TEAE: Metastases to the central nervous system (All patients (N = 72)): 2 (2.8) n (%) | Patients with any TEAE (All patients (N = 72)): 70 (97.2) Number (%) | Patients with any TEAE leading to treatment discontinuation (All patients (N = 72)): 11 (15.3) Number (%) | Patients with any serious TEAE (All patients (N = 72)): 28 (38.9) Number (%) | Patients with any study drug-related TEAE (All patients (N = 72)): 40 (55.6) Number (%) | Patients with ≥ 1 treatment-emergent SAE (All patients (N = 72)): 28 (38.9) n (%) | SAE class: Blood and lymphatic system disorders (All patients (N = 72)): 2 (2.8) n (%) | SAE class: Cardiac disorders (All patients (N = 72)): 1 (1.4) n (%) | SAE class: Gastrointestinal disorders (All patients (N = 72)): 5 (6.9) n (%) | SAE class: General disorders and administration-site conditions (All patients (N = 72)): 7 (9.7) n (%) | SAE class: Hepatobiliary disorders (All patients (N = 72)): 1 (1.4) n (%) | SAE class: Infections and infestations (All patients (N = 72)): 5 (6.9) n (%) | SAE class: Metabolism and nutrition disorders (All patients (N = 72)): 1 (1.4) n (%) | SAE class: Musculoskeletal and connective tissue disorders (All patients (N = 72)): 1 (1.4) n (%) | SAE class: Neoplasms benign, malignant and unspecified (including cysts and polyps) (All patients (N = 72)): 3 (4.2) n (%) | SAE class: Nervous system disorders (All patients (N = 72)): 8 (11.1) n (%) | SAE class: Respiratory, thoracic and mediastinal disorders (All patients (N = 72)): 4 (5.6) n (%) | SAE class: Vascular disorders (All patients (N = 72)): 1 (1.4) n (%) | SAE: Abdominal pain (All patients (N = 72)): 1 (1.4) n (%) | SAE: Anaemia (All patients (N = 72)): 2 (2.8) n (%) | SAE: Asthenia (All patients (N = 72)): 1 (1.4) n (%) | SAE: Basal cell carcinoma (All patients (N = 72)): 1 (1.4) n (%) | SAE: Bone pain (All patients (N = 72)): 1 (1.4) n (%) | SAE: Deep-vein thrombosis (All patients (N = 72)): 1 (1.4) n (%) | SAE: Dehydration (All patients (N = 72)): 1 (1.4) n (%) | SAE: Disease progression (All patients (N = 72)): 6 (8.3) n (%) | SAE: Dyspnoea (All patients (N = 72)): 3 (4.2) n (%) | SAE: Gastric haemorrhage (All patients (N = 72)): 1 (1.4) n (%) | SAE: Gastric ulcer helicobacter (All patients (N = 72)): 1 (1.4) n (%) | SAE: Infection (All patients (N = 72)): 1 (1.4) n (%) | SAE: Lower respiratory tract infection (All patients (N = 72)): 1 (1.4) n (%) | SAE: Mastoiditis (All patients (N = 72)): 1 (1.4) n (%) | SAE: Mental impairment (All patients (N = 72)): 2 (2.8) n (%) | SAE: Metastases to the central nervous system (All patients (N = 72)): 2 (2.8) n (%) | SAE: Pericardial effusion (All patients (N = 72)): 1 (1.4) n (%) | SAE: Pleural effusion (All patients (N = 72)): 1 (1.4) n (%) | SAE: Pneumonia (All patients (N = 72)): 1 (1.4) n (%) | SAE: Portal vein thrombosis (All patients (N = 72)): 1 (1.4) n (%) | SAE: Seizure (All patients (N = 72)): 2 (2.8) n (%) | SAE: Subarachnoid haemorrhage (All patients (N = 72)): 1 (1.4) n (%) | Total number of TEAEs (All patients (N = 72)): 621 | Total number of treatment-emergent SAEs (All patients (N = 72)): 49 | Patients with any AE leading to death (All patients (N = 72)): 6 (8.3) Number (%) | Most common grade 3–4 TEAEs, patients (RP2D 40 mg Q8h): 3.2–6.5% | Recommended phase 2 dose (RP2D) (every 8 hours (Q8h, TID), IR): 40 mg | Grade 3 TEAEs, patients (safety population): 51.4% | Grade 4 TEAE of anaemia (safety population): One patient | SAE disease progression, patients (safety population): 8.3% | Study drug-related SAE, patients (safety population): 1.4% | Study drug-related TEAEs, patients (safety population): 55.6% | TEAEs leading to study drug discontinuation, patients (safety population): 15.3% | TEAEs of grade 1 severity (safety population): 64 % of events | Treatment-emergent SAEs, patients (safety population): 38.9% | Patients with ≥ 1 TEAE (safety population (N = 72)): 97.2% | TEAE QTc prolongation, patients [1]: 18.1% | TEAE anaemia, patients [1]: 15.3% | TEAE asthenia, patients [1]: 15.3% | TEAE class gastrointestinal disorders, patients [1]: 61.1% | TEAE class general disorders and administration-site conditions, patients [1]: 50.0% | TEAE constipation, patients [1]: 19.4% | TEAE decreased appetite, patients [1]: 15.3% | TEAE diarrhoea, patients [1]: 18.1% | TEAE fatigue, patients [1]: 19.4% | TEAE headache, patients [1]: 15.3% | TEAE vomiting, patients [1]: 18.1%
